The values below come from patent publication US7951407B2, “Ruminant feed containing N-carbamoyl glutamate” (University of Maryland, priority 2003, dated 2011).

Experiment [1] has as its system Ruminal epithelial cells (REC). Description: Net urea production by isolated ruminal epithelial cells incubated with ornithine-urea cycle substrate intermediates. Also noted: net urea production: dose or concentration left out as unconfirmed. In kind it is cell-based, sheep. The source says:
Ruminal epithelial cells (REC) and duodenal mucosal cells (DMC) were harvested from four growing Polypay ram lambs (33.1 plus/minus 4.8 kg body weight) fed a pelleted diet comprised of 55% forage (alfalfa hay) and 45% concentrate (dry ground corn. soybean meal, and premix of minerals and vitamins) ad libitum for at least two weeks before slaughter. All animal procedures were approved by the Beltsville Agricultural Research Center Institutional Animal Care and Use Committee (protocol # 02-008). Gut cells were isolated separately for each sheep following the procedures described by Baldwin and McLeod and Oba et al. Cell viability averaged 73.1% for REC and 82.4% for DMC. […] N-carbamoyl glutamate is a stable analog of […] stimulator of carbamoyl phosphate synthetase. Treatments were arranged in a 2×4 factorial design, and performed in triplicate incubations for each sheep. […] Krebs-Ringer plus 24 mM HEPES and 0.12 M sodium bicarbonate) was oxygenated with O2:CO2 (95:5) and the pH adjusted to 7.4. Incubations were initiated by addition of 0.5 ml of cell suspension (1×10^7 viable cells) to freshly gassed (20 s under 95:5 O2:CO2) media, and flasks were placed into a reciprocal action shaking water bath at 37° C. After 90 min, 0.2 ml of concentrated HClO4 was injected into the flasks to terminate the incubation, followed by addition of 0.3 ml of 5.8 M K2CO3 to neutralize the media. […] See Lobley, G. E. et al., Br. J. Nutr. […] Urea concentration was determined by isotope dilution with gas chromatography-mass spectrometry (HP6890 coupled to an HP5973 Mass Selective Detector, Agilent, Palo Alto, Calif.) essentially according to the known method of Calder et al. See Calder, A. G., Rapid Commun. […] Net urea production was calculated by subtracting background urea present at time 0 (Control) from concentrations after 90-min incubation. Data were analyzed separately for REC and DMC using the Proc Mixed procedure of SAS (SAS Inc., Cary, N.C.) with fixed effect of VFA type, substrate combination, their interactions, and random effect of animals in the model.

Experiment [2] has as its system duodenal mucosal cells (DMC). In words: Net urea production by isolated duodenal mucosal cells incubated with ornithine-urea cycle substrate intermediates. Also noted: net urea production: dose or concentration left out as unconfirmed. The format is cell-based, sheep. An excerpt: Ruminal epithelial cells (REC) and duodenal mucosal cells (DMC) were harvested from four growing Polypay ram lambs (33.1 plus/minus 4.8 kg body weight) fed a pelleted diet comprised of 55% forage (alfalfa hay) and 45% concentrate (dry ground corn. soybean meal, and premix of minerals and vitamins) ad libitum for at least two weeks before slaughter. All animal procedures were approved by the Beltsville Agricultural Research Center Institutional Animal Care and Use Committee (protocol # 02-008). Gut cells were isolated separately for each sheep following the procedures described by Baldwin and McLeod and Oba et al. Cell viability averaged 73.1% for REC and 82.4% for DMC. […] Urea concentration was determined by isotope dilution with gas chromatography-mass spectrometry (HP6890 coupled to an HP5973 Mass Selective Detector, Agilent, Palo Alto, Calif.) essentially according to the known method of Calder et al. See Calder, A. G., Rapid Commun. […] Net urea production was calculated by subtracting background urea present at time 0 (Control) from concentrations after 90-min incubation. Data were analyzed separately for REC and DMC using the Proc Mixed procedure of SAS (SAS Inc., Cary, N.C.) with fixed effect of VFA type, substrate combination, their interactions, and random effect of animals in the model.

For the compound `NC(=O)N[C@@H](CCC(=O)O)C(=O)O` [N-carbamoyl glutamate], the “effect of N-carbamoyl glutamate addition on urea synthesis” value in experiment [1] (REC, AspONG versus AspON (P=0.11)) is “stimulatory effect”; in experiment [2] (AspONG versus AspON (P<0.001)), “stimulatory effect”.
In the case of `N=C(N)NCCC[C@H](N)C(=O)O` [Arg, arginine], the “net urea production by REC relative to DMC” value in experiment [1] (REC versus DMC in the presence of arginine) was found to be 25 fold. The net urea production in experiment [1] (REC, 90 min incubation in media, background urea at time 0 subtracted) is 54.5±6.3 nmoles·10^6 cells^−1 90 min^−1; in experiment [2] (90 min incubation in media, background urea at time 0 subtracted), 2.1±0.7 nmoles·10^6 cells^−1 90 min^−1.
